Test results: PubChem BioAssay (NCI)
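Protocol summary: plate cells (96-well), add compound at 5 concentrations, incubate 48 h, interpolate endpoints linearly. At the TGI there is no net growth.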

What was measured:
Assay in all cases: NCI anticancer screen, dose series, 48 h
HCT-116 colon = test system: HCT-116 colon
MCF7 breast = test system: MCF7 breast
MOLT-4 leukemia = test system: MOLT-4 leukemia
NCI-H226 lung = test system: NCI-H226 lung
NCI-H522 lung = test system: NCI-H522 lung
OVCAR-8 ovarian = test system: OVCAR-8 ovarian
SN12C renal = test system: SN12C renal
SNB-19 CNS = test system: SNB-19 CNS
UACC-257 melanoma = test system: UACC-257 melanoma
UACC-62 melanoma = test system: UACC-62 melanoma
UO-31 renal = test system: UO-31 renal
SK-MEL-28 melanoma = test system: SK-MEL-28 melanoma
SNB-75 CNS = test system: SNB-75 CNS

## CC(C)CC(NC(=O)OCc1ccccc1)C(=O)NCCCCC(N)C(=O)NC(CCCCNC(=O)C(CC(C)C)NC(=O)OCc1ccccc1)C(=O)NC(CCCCNC(=O)C(CC(C)C)NC(=O)OCc1ccccc1)C(=O)NC(CCCCNC(=O)C(CC(C)C)NC(=O)OCc1ccccc1)C(=O)NC(CCCCNC(=O)C(CC(C)C)NC(=O)OCc1ccccc1)C(=O)NC(CCCCNC(=O)C(CC(C)C)NC(=O)OCc1ccccc1)C(=O)O (configuration not stated)
HCT-116 colon
  TGI: > 100 µM
MCF7 breast
  TGI: > 100 µM
MOLT-4 leukemia
  TGI: > 100 µM
NCI-H226 lung
  TGI: > 100 µM
NCI-H522 lung
  TGI: > 100 µM
OVCAR-8 ovarian
  TGI: > 100 µM
SN12C renal
  TGI: > 100 µM
SNB-19 CNS
  TGI: > 100 µM
UACC-257 melanoma
  TGI: > 100 µM
UACC-62 melanoma
  TGI: > 100 µM
UO-31 renal
  TGI: > 100 µM

## O=C(/C=C/c1c(O)c2ccccc2[nH]c1=O)CC(=O)C(=O)Nc1cccc(O)c1
HCT-116 colon
  TGI: > 100 µM
MCF7 breast
  TGI: > 100 µM
MOLT-4 leukemia
  TGI: > 100 µM
NCI-H226 lung
  TGI: > 100 µM
NCI-H522 lung
  TGI: > 100 µM
OVCAR-8 ovarian
  TGI: > 100 µM
SK-MEL-28 melanoma
  TGI: > 100 µM
SN12C renal
  TGI: > 100 µM
SNB-19 CNS
  TGI: > 100 µM
SNB-75 CNS
  TGI: > 100 µM
UACC-257 melanoma
  TGI: > 100 µM
UACC-62 melanoma
  TGI: > 100 µM
UO-31 renal
  TGI: > 100 µM

## O=C(O)c1ccccc1C(=O)OCC1CCCN2CCCCC12 (configuration not stated)
HCT-116 colon
  TGI: > 100 µM
MCF7 breast
  TGI: > 100 µM
MOLT-4 leukemia
  TGI: > 100 µM
NCI-H226 lung
  TGI: > 100 µM
OVCAR-8 ovarian
  TGI: > 100 µM
SK-MEL-28 melanoma
  TGI: > 100 µM
SN12C renal
  TGI: > 100 µM
SNB-19 CNS
  TGI: > 100 µM
SNB-75 CNS
  TGI: > 100 µM
UACC-257 melanoma
  TGI: > 100 µM
UACC-62 melanoma
  TGI: > 100 µM
UO-31 renal
  TGI: > 100 µM

## NC(=Nc1ccc(Cl)c(Cl)c1)c1ccccc1N
HCT-116 colon
  TGI: 57.1 µM
MCF7 breast
  TGI: > 100 µM
MOLT-4 leukemia
  TGI: 69.3 µM
NCI-H226 lung
  TGI: > 100 µM
NCI-H522 lung
  TGI: 32.6 µM
OVCAR-8 ovarian
  TGI: > 100 µM
SK-MEL-28 melanoma
  TGI: 52.2 µM
SNB-19 CNS
  TGI: > 100 µM
SNB-75 CNS
  TGI: 75.7 µM
UACC-257 melanoma
  TGI: 92.7 µM
UACC-62 melanoma
  TGI: > 100 µM
UO-31 renal
  TGI: > 100 µM

## CCOC(=O)C1C(C(C)C)C2(C#N)C(=N)OC1(C)C2(C#N)C#N (configuration not stated)
HCT-116 colon
  TGI: > 100 µM
MCF7 breast
  TGI: > 100 µM
NCI-H226 lung
  TGI: > 100 µM
NCI-H522 lung
  TGI: > 100 µM
OVCAR-8 ovarian
  TGI: > 100 µM
SK-MEL-28 melanoma
  TGI: > 100 µM
SN12C renal
  TGI: > 100 µM
SNB-19 CNS
  TGI: > 100 µM
SNB-75 CNS
  TGI: 74.4 µM
UACC-257 melanoma
  TGI: > 100 µM
UACC-62 melanoma
  TGI: > 100 µM
UO-31 renal
  TGI: > 100 µM

## CC1(C)C[C@H]2C3=CC[C@@H]4[C@@]5(C)CC[C@H](O)C(C)(C)[C@@H]5CC[C@@]4(C)[C@]3(C)C[C@@H](O)[C@@]23C[C@@H]1OC3=O
HCT-116 colon
  TGI: > 100 µM
MCF7 breast
  TGI: > 100 µM
MOLT-4 leukemia
  TGI: > 100 µM
NCI-H522 lung
  TGI: > 100 µM
OVCAR-8 ovarian
  TGI: > 100 µM
SK-MEL-28 melanoma
  TGI: > 100 µM
SN12C renal
  TGI: > 100 µM
SNB-19 CNS
  TGI: > 100 µM
SNB-75 CNS
  TGI: > 100 µM
UACC-257 melanoma
  TGI: > 100 µM
UACC-62 melanoma
  TGI: > 100 µM
UO-31 renal
  TGI: > 100 µM

## COCC1OCCN1C (configuration not stated)
HCT-116 colon
  TGI: > 100 µM
MCF7 breast
  TGI: > 100 µM
MOLT-4 leukemia
  TGI: > 100 µM
NCI-H226 lung
  TGI: > 100 µM
NCI-H522 lung
  TGI: > 100 µM
OVCAR-8 ovarian
  TGI: > 100 µM
SNB-19 CNS
  TGI: > 100 µM
SNB-75 CNS
  TGI: > 100 µM
UACC-257 melanoma
  TGI: > 100 µM
UACC-62 melanoma
  TGI: > 100 µM
UO-31 renal
  TGI: > 100 µM

## CC(=O)CCC(=O)CC(O)(C(F)(F)F)C(F)(F)F
HCT-116 colon
  TGI: 31.3 µM
MCF7 breast
  TGI: 37.1 µM
MOLT-4 leukemia
  TGI: 36.6 µM
NCI-H226 lung
  TGI: 24.7 µM
OVCAR-8 ovarian
  TGI: 37.9 µM
SK-MEL-28 melanoma
  TGI: 39.6 µM
SN12C renal
  TGI: 36.5 µM
SNB-19 CNS
  TGI: 30 µM
SNB-75 CNS
  TGI: 65.2 µM
UACC-257 melanoma
  TGI: 33.7 µM
UACC-62 melanoma
  TGI: 32 µM
UO-31 renal
  TGI: 27.8 µM

## Clc1cccc(Cl)c1C1SCc2nc3cc4ccccc4cc3n21 (configuration not stated)
HCT-116 colon
  TGI: > 100 µM
MCF7 breast
  TGI: > 100 µM
MOLT-4 leukemia
  TGI: > 100 µM
NCI-H226 lung
  TGI: > 100 µM
OVCAR-8 ovarian
  TGI: > 100 µM
SK-MEL-28 melanoma
  TGI: > 100 µM
SN12C renal
  TGI: > 100 µM
SNB-19 CNS
  TGI: > 100 µM
SNB-75 CNS
  TGI: > 100 µM
UACC-257 melanoma
  TGI: > 100 µM
UACC-62 melanoma
  TGI: > 100 µM
UO-31 renal
  TGI: > 100 µM
